biological target: T1, human TrkA (Homo sapiens, UniProt P04629); assay: Test Example 2-2: Human TrkA Inhibition Assay; format: biochemical; conditions: human TrkA 1 nmol/L, 120 min at 37° C., read-out: TrkA inhibition IC50
T1 construct: purchased Lifetechnologies PV3144
Method: Seven point five μL per well of human TrkA (PV3144, Lifetechnologies, final concentration: 1 nmol/L) suspended in the assay buffer (100 mmol/L 4-(2-hydroxyethyl)-1-piperazineethanesulfonic acid (HEPES), 10 mmol/L magnesium chloride, 0.003 vol % Brij-35, 0.004 vol % Tween20 and 1 mmol/L dithiothreitol (DTT)) was applied in a 384 well plate and the plate was pre-incubated for 15 min at room temperature with 0.4 μL of each compound (final concentration: […]) dissolved in DMSO. Then, fluorescent substrate (FL-peptide 27, 760424, PerkinElmer, final concentration: 1.5 μmol/L) and ATP (final concentration […]) dissolved in the assay buffer was added in each well. After the incubation of 120 min at 37° C., fifteen μL of termination buffer (100 mmol/L HEPES, 40 mmol/L ethylenediaminetetraacetic acid (EDTA), 10 mmol/L magnesium chloride, 0.003 vol % Brij-35, 0.004 vol % Tween20, 1 mmol/L DTT and 0.16 vol % Coating Reagent 3) was added in each well to stop the enzyme reaction. Fluorescent intensities (FI) of phosphorylated and non-phosphorylated fluorescent substrates were measured by LabChip EZReader II (Caliper LifeSciences, Inc.), and conversion ratio (CR) was calculated by the following formula-1. The CR in the well applied with DMSO alone was used as a negative control and the CR in the well without applying TrkA was used as a positive control. The inhibitory effect of each compound on TrkA phosphorylation was calculated by the following formula-2. CR (%)=(FI of phosphorylated substrate/(FI of phosphorylated substrate+FI of non-phosphorylated substrate))×100 (Formula-1) Phosphorylation inhibition (%)=(1−(CR with compound treatment−CR of positive control)/(CR of negative control−CR of positive control))×100 (Formula-2) Inhibitory effect on TrkA phosphorylation (%)=(1−(CR in compound treated well−CR in positive control)/(CR in negative control−CR in positive control))×100.
The 50/o inhibitory concentration (IC50) was determined by the logistic regression using the inhibition data in 10 points at a range of 2 μmol/L to 0.1 nmol/L or 200 μmol/L to 10 nmol/L).

T1 sequence (P04629 33-796): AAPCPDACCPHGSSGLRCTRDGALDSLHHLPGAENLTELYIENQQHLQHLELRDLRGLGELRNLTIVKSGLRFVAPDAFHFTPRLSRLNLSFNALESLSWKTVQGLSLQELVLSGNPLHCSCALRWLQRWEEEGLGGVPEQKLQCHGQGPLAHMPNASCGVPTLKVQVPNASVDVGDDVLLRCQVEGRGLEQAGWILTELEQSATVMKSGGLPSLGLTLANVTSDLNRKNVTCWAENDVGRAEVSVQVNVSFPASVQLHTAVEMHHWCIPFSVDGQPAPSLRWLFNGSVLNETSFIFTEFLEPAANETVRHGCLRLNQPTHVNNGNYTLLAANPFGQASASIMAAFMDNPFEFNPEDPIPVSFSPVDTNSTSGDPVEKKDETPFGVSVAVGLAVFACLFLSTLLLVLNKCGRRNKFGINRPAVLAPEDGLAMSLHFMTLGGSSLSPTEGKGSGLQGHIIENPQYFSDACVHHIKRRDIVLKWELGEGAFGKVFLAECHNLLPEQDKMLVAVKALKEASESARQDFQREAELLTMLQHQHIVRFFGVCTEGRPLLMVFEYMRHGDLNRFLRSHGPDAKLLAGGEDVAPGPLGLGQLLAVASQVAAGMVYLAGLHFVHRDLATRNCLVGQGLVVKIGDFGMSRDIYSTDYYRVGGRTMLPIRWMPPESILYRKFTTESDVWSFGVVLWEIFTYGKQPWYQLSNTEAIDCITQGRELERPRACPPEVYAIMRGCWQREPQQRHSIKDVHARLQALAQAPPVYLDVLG

SMILES	IC50 [nM]
Cc1c(-c2cnn(C)c2)nn(-c2ccccc2)c1NC(=O)N[C@@H]1CN(Cc2ccc(Br)o2)C[C@H]1c1ccc(F)c(F)c1 [Compound I-190]	1.3
COCC[C@@H]1C[C@@H](NC(=O)Nc2c(C)c(-c3cnc(C)nc3)nn2-c2ccccc2)[C@H](c2ccc(F)c(F)c2)C1 [Compound I-254]	0.73

Second part, the compound after the results:

IC50 [nM]	SMILES
0.71	Cc1c(-c2cnn(C)c2)nn(-c2ccccc2)c1NC(=O)N[C@@H]1CN(Cc2ccc(Cl)o2)C[C@H]1c1ccc(F)c(F)c1 [Compound I-202]
76	COCC(CO)[C@@H]1C[C@@H](NC(=O)Nc2c(C)c(-c3cnn(C)c3)nn2-c2ccccc2)[C@H](c2ccccc2)C1 (stereo partly drawn) [Compound I-239]
0.9	COCC[C@@H]1C[C@@H](NC(=O)Nc2c(C)c(-c3cnn(C)c3)nn2-c2ccccc2)[C@H](c2ccccc2)[C@H]1C [Compound I-241]
3.6	Cc1c(-c2cnn(C)c2)nn(-c2ccccc2)c1NC(=O)N[C@@H]1CN(CCOC2CC2)C[C@H]1c1ccc(F)c(F)c1 [Compound I-252]

same assay, conditions: human TrkA inhibition, class symbols A/B/C, read-out: IC50_nM

SMILES	IC50 [nM]
COCCC1C[C@@H](NC(=O)Nc2c(C)c(-c3cnn(C)c3)nn2-c2ccccc2)[C@H](c2ccc(F)c(F)c2)C1 (stereo partly drawn) [Compound I-187]	< 100
Cc1c(-c2cnn(C)c2)nn(-c2ccccc2)c1NC(=O)N[C@@H]1CN(Cc2ccc(C(=O)O)o2)C[C@H]1c1ccc(F)c(F)c1 [Compound I-188]	> 1000
Cc1c(-c2cnn(C)c2)nn(-c2ccccc2)c1NC(=O)N[C@@H]1CN(Cc2ccc(CO)o2)C[C@H]1c1ccc(F)c(F)c1 [Compound I-191]	100 to 1000
CCc1ccc(CN2C[C@@H](NC(=O)Nc3c(C)c(-c4cnn(C)c4)nn3-c3ccccc3)[C@H](c3ccc(F)c(F)c3)C2)o1 [Compound I-192]	100 to 1000
Cc1ccc(CN2C[C@@H](NC(=O)Nc3c(C)c(-c4cnn(C)c4)nn3-c3ccccc3)[C@H](c3ccc(F)c(F)c3)C2)o1 [Compound I-193]	< 100
COCCC1C[C@@H](NC(=O)Nc2c(C)c(-c3cnn(C)c3)nn2-c2ccccc2)[C@H](c2ccc(F)c(F)c2)N1CCOC (stereo partly drawn) [Compound I-197]	> 1000
COCCC1C[C@@H](NC(=O)Nc2c(C)c(-c3cnn(C)c3)nn2-c2ccccc2)[C@H](c2ccc(F)c(F)c2)N1CC(=O)OC (stereo partly drawn) [Compound I-198]	> 1000
CNC(=O)c1ccc(-c2cc(NC(=O)N[C@@H]3CC(CCOC)C[C@H]3c3ccccc3)n(C)n2)cc1 (stereo partly drawn) [Compound I-200]	> 1000
Cc1cc(CN2C[C@@H](NC(=O)Nc3c(C)c(-c4cnn(C)c4)nn3-c3ccccc3)[C@H](c3ccc(F)c(F)c3)C2)oc1C [Compound I-203]	100 to 1000
Cc1c(-c2cnn(C)c2)nn(-c2ccccc2)c1NC(=O)N[C@@H]1CN(Cc2csc(Cl)n2)C[C@H]1c1ccc(F)c(F)c1 [Compound I-204]	< 100
Cc1c(-c2cnn(C)c2)nn(-c2ccccc2)c1NC(=O)N[C@@H]1CN(Cc2csc(Br)n2)C[C@H]1c1ccc(F)c(F)c1 [Compound I-205]	< 100
COCCC1C[C@@H](NC(=O)Nc2c(C)c(-c3ccc(C(=O)OC(C)(C)C)cc3)nn2-c2ccccc2)[C@H](c2ccccc2)C1 (stereo partly drawn) [Compound I-206]	< 100
COCC[C@@H]1C[C@@H](NC(=O)Nc2c(C)c(-c3cnn(C)c3)nn2-c2ccccc2)[C@H](c2ccc(F)c(F)c2)N1 [Compound I-208]	< 100
CCOc1nn(-c2ccccc2)c(NC(=O)N[C@@H]2CC(CCOC)C[C@H]2c2ccccc2)c1C (stereo partly drawn) [Compound I-212]	< 100
COCCC1C[C@H](NC(=O)Nc2c(C)c(-c3cnn(C)c3)nn2-c2ccccc2)[C@@H](c2ccccc2)C1 (stereo partly drawn) [Compound I-213]	100 to 1000
COCCC1C[C@@H](NC(=O)Nc2cc(-c3ccccc3)nn2C)[C@H](c2ccccc2)N1 (stereo partly drawn) [Compound I-216]	100 to 1000
Cc1c(-c2cnn(C)c2)nn(-c2ccccc2)c1NC(=O)N[C@@H]1CN(CCOC(C)C)C[C@H]1c1ccc(F)c(F)c1 [Compound I-217]	< 100
COCCC1C[C@@H](NC(=O)Nc2c(C)c(-c3cnn(C)c3)nn2-c2ccccc2)[C@H](c2ccc(O)cc2)C1 (stereo partly drawn) [Compound I-222]	< 100
CCOc1nn(-c2ccccc2)c(NC(=O)N[C@@H]2C[C@@H](CCOC)[C@H](CO)[C@H]2c2ccccc2)c1C [Compound I-227]	100 to 1000
COCC(OC)[C@H]1C[C@@H](NC(=O)Nc2c(C)c(-c3cnn(C)c3)nn2-c2ccccc2)[C@H](c2ccc(F)c(F)c2)N1C (stereo partly drawn) [Compound I-231]	> 1000
COCC[C@@H]1C[C@@H](NC(=O)Nc2c(C)c(-c3ccnc(C)c3)nn2-c2ccccc2)[C@H](c2ccc(F)c(F)c2)N1C [Compound I-235]	< 100
COCC[C@@H]1C[C@@H](NC(=O)Nc2c(C)c(-c3ccc(C(=O)OC(C)(C)C)cc3)nn2-c2ccccc2)[C@H](c2ccc(F)c(F)c2)N1C [Compound I-236]	< 100
COCC[C@@H]1C[C@@H](NC(=O)Nc2c(C)c(-c3ccc(C(=O)O)cc3)nn2-c2ccccc2)[C@H](c2ccc(F)c(F)c2)N1C [Compound I-237]	< 100
CCOCCN1C[C@@H](NC(=O)Nc2c(C)c(-c3cnn(C)c3)nn2-c2ccccc2)[C@H](c2ccc(F)c(F)c2)C1 [Compound I-249]	< 100
COCCN1C[C@@H](NC(=O)Nc2c(C)c(-c3cnn(C)c3)nn2-c2ccccc2)[C@H](c2ccccc2)[C@H]1CF [Compound I-251]	100 to 1000

Other lines, results leading:

IC50 [nM]	SMILES
100 to 1000	COCC(c1ccco1)N1C[C@@H](NC(=O)Nc2c(C)c(-c3cnn(C)c3)nn2-c2ccccc2)[C@H](c2ccc(F)c(F)c2)C1 (stereo partly drawn) [Compound I-186]
< 100	Cc1c(-c2cnn(C)c2)nn(-c2ccccc2)c1NC(=O)N[C@@H]1CN(Cc2cc(Br)co2)C[C@H]1c1ccc(F)c(F)c1 [Compound I-189]
> 1000	Cc1c(-c2cnn(C)c2)nn(-c2ccccc2)c1NC(=O)N[C@@H]1CN(C(C)C)C[C@H]1c1ccc(F)c(F)c1 [Compound I-194]
> 1000	COCCC1C[C@@H](NC(=O)Nc2c(C)c(-c3cnn(C)c3)nn2-c2ccccc2)[C@H](c2ccc(F)c(F)c2)N1Cc1ccccc1 (stereo partly drawn) [Compound I-196]
> 1000	COCCC1C[C@@H](NC(=O)Nc2cc(-c3ccc(C(=O)O)cc3)nn2C)[C@H](c2ccccc2)C1 (stereo partly drawn) [Compound I-199]
< 100	COCCC1C[C@@H](NC(=O)Nc2c(C)c(-c3ccc(C(=O)O)cc3)nn2-c2ccccc2)[C@H](c2ccccc2)C1 (stereo partly drawn) [Compound I-207]
100 to 1000	COCC(O)[C@H]1C[C@@H](NC(=O)Nc2c(C)c(-c3cnn(C)c3)nn2-c2ccccc2)[C@H](c2ccc(F)c(F)c2)N1 (stereo partly drawn) [Compound I-215]
> 1000	COCCC1C[C@@H](NC(=O)Nc2cc(-c3cnc(C)nc3)nn2C)[C@H](c2ccccc2)C1 (stereo partly drawn) [Compound I-219]
100 to 1000	COCCC1C[C@@H](NC(=O)Nc2cc(-c3ccc(C)nc3)nn2C)[C@H](c2ccccc2)C1 (stereo partly drawn) [Compound I-220]
100 to 1000	C=C[C@@H]1C[C@@H](NC(=O)Nc2c(C)c(-c3cnn(C)c3)nn2-c2ccccc2)[C@H](c2ccc(F)c(F)c2)N1 [Compound I-224]
100 to 1000	COCC[C@@H]1C[C@@H](NC(=O)Nc2c(C)c(-c3cnn(C)c3)nn2-c2ccccc2)[C@H](c2ccccc2)[C@H]1CO [Compound I-226]
< 100	COCC(O)[C@H]1C[C@@H](NC(=O)Nc2c(C)c(-c3cnn(C)c3)nn2-c2ccccc2)[C@H](c2ccc(F)c(F)c2)N1C (stereo partly drawn) [Compound I-229]
< 100	COCCC1C[C@@H](NC(=O)Nc2c(C)c(-c3ccnc(C)c3)nn2-c2ccccc2)[C@H](c2ccccc2)C1 (stereo partly drawn) [Compound I-234]
100 to 1000	Cc1c(-c2cnn(C)c2)nn(-c2ccccc2)c1NC(=O)N[C@@H]1CN(Cc2ccccn2)C[C@H]1c1ccc(F)c(F)c1 [Compound I-240]
100 to 1000	COCC[C@@H]1C[C@@H](NC(=O)Nc2c(C)c(-c3cnn(C)c3)nn2-c2ccccc2)[C@H](c2ccccc2)N1 [Compound I-242]
> 1000	COCC(COS(C)(=O)=O)[C@@H]1C[C@@H](NC(=O)Nc2c(C)c(-c3cnn(C)c3)nn2-c2ccccc2)[C@H](c2ccccc2)C1 (stereo partly drawn) [Compound I-245]
< 100	COCC[C@H]1C[C@@H](NC(=O)Nc2c(C)c(-c3cnn(C)c3)nn2-c2ccccc2)[C@H](c2ccccc2)N1C [Compound I-246]
< 100	COCC[C@@H]1C[C@@H](NC(=O)Nc2c(C)c(C3=CCNCC3)nn2-c2ccccc2)[C@H](c2ccc(F)c(F)c2)N1 [Compound I-247]
< 100	COCCN1C[C@@H](NC(=O)Nc2c(C)c(-c3cnn(C)c3)nn2-c2ccccc2)[C@H](c2ccc(F)c(F)c2)C1 [Compound I-250]
< 100	COCC[C@@H]1C[C@@H](NC(=O)Nc2c(C)c(-c3cnn(C)c3)nn2-c2ccccc2)[C@H](c2ccccc2)[C@H]1C(F)F [Compound I-253]

From patent publication US10532985B2, “Heterocycle and carbocycle derivatives having TRKA inhibitory activity” (Shionogi & Co., Ltd., priority 2014, dated 2020)
